Laboratory results: PMC11249626, “Fluorophore-Labeled Pyrrolones Targeting the Intracellular Allosteric Binding Site of the Chemokine Receptor CCR1” (ACS Pharmacology & Translational Science, 2024)
Converted amounts (≈) assume the structure as drawn. Read-outs that look alike come from different tables or passages of the source.

Tests used:
CCR1 = molecular target: T1, CCR1 (Homo sapiens, UniProt P32246); experiment: Membrane-based radioligand binding assay with [3H]-CCR2-RA-[R], U2OS membranes; conditions: for Ki: [3H]CCR2-RA-[R] 6 nM, 25 °C
T1 sequence (P32246 1-355): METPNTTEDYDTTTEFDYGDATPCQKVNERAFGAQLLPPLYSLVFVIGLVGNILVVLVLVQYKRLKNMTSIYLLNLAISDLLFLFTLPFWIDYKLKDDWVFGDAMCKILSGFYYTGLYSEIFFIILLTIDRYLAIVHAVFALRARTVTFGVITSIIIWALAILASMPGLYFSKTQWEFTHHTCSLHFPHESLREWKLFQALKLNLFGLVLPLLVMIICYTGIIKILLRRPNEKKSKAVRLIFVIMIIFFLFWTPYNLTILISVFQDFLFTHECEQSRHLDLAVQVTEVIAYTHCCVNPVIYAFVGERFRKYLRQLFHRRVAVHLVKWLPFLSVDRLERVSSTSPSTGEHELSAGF
Procedure: (§1) Membrane-based radioligand binding assays: Assays were performed according to the published protocol.13 Radioligand binding assays were performed in a 100 µ L reaction volume containing varying concentrations (final concentrations: 0.001 – 10 µM) of compounds 23 and 5, 6 nM [3H]-CCR2-RA-[R] (specific activity 60.6 Ci mmol-1, custom labeled by Vitrax in Placentia, CA, USA), and 15 µg membrane protein, all diluted in assay buffer (50mM Tris-HCl, 5 mM MgCl2, 0.1% CHAPS, at pH 7.4). Membranes were obtained from Tango™ CCR1-bla or Tango™ CCR2-bla osteosarcoma (U2OS) cells stably expressing the human CCR1 ([…]) or human CCR2b (U2OS-CCR2) cells (Invitrogen, Carlsbad, CA, USA). Total binding was determined in the absence of competing ligand, while non -specific binding was determined in the presence of 10 µM CCR2-RA-[R]. After membrane addition, reaction mixtures were incubated for 2 h at 25 °C while shaking. After 2 h, reactions were terminated by harvesting through a 96 -well GF/C filter plate using a PerkinElmer Filtermate harvester (PerkinElmer, Groningen, NL) and ice -cold wash buffer (50mM Tris-HCl, 5 mM MgCl2, 0.1% CHAPS, at pH 7.4). Afterwards, filter plate was dried, and radioactivity was measured in a P-E-2450 Microbeta2 scintillation plate counter (PerkinElmer, Groningen, NL) after addition of 25 µL of Microscint scintillation cocktail (PerkinElmer, Groningen, NL). […]
(§2) Technologies) for 20 min. […]
(§3) Finally, the top 5% of the identified hits were subsequently docked to a homology model of CCR1 (vide infra). After visual examination of the obtained binding modes 24 hit compounds were identified for further investigation .
(§4) Molecular docking: For the docking studies in the course of our virtual screening campaign, the CCR1 protein was […]
(§5) 27, 28 CCR1 structure was optimized using the Quickprep and structure preparation wizard in MOE 24 using CHARMM27 forcefield. The protein was saved in mol2 format and loaded in GOLD.25, 26 The amino acids defining the IABS were listed in a text file to define the docking cavity. 50 GA runs were performed for docking CCR2-RA-[R] (4-[R]) and SN_12 (43), with the generated solutions clustered based on their RMSD with the threshold set to 0.75 Å using the complete linkage method. Docking runs were performed using ChemScore. Flexibility of amino acids Lys63ICL1, Arg1313.50, Leu2406.36 and Arg3078.49 was taken in consideration in the docking runs, with conformational sampling of their side chains being done by the rotamer libraries implemented in GOLD.25, 26 For the docking studies with our ligand-linker conjugates (Figure S1), molecular ligand structures were geometry optimized as neutral molecules by means of Avogadro (Version 1.2.0)29 using the Universal Force Field (UFF) and the Steepest Decent Algorithm until convergence (ΔE = 0).
(§6) CCR113 was used for docking. The compounds were docked by means of AutoDock Vina 1.1.2.30, 31 An exhaustiveness value of 8 and a search space of 22 x 22 x 22 Å³ was applied around the unliganded intracellular allosteric binding site of CCR1. Twenty docking poses were generated for each ligand and inspected manually and according to the docking score.

human CCR2b = molecular target: T2, human CCR2b (Homo sapiens, UniProt P41597); experiment: as above; conditions: [3H]CCR2-RA-[R] 6 nM, 25 °C
T2 sequence (P41597 1-360 isoform P41597-2): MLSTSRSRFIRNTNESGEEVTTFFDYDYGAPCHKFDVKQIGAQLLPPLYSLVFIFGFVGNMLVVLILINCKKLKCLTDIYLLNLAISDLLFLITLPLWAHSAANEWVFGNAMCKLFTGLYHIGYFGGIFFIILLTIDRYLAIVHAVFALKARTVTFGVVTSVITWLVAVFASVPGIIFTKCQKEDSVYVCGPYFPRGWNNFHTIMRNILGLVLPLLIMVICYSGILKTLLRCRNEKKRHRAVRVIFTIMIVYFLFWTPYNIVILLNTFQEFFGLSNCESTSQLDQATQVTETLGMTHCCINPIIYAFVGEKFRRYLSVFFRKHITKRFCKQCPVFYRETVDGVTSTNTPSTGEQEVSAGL
Procedure: as §1, §2, §3, §4, §5, §6

[1] = Kinetic solubility assay (nephelometry); assay type: physicochemical; conditions: aqueous buffer, kinetic from dmso stock; saline phosphate buffer pH 7.25, 1% DMSO, 25 °C, ± SD; read-out: kinetic solubility Skin
[2] = read-out: Ki, CCR1 (radioligand)
[3] = read-out: Ki, CCR2 (radioligand)

Row | CCR1 over CCR2 binding selectivity (radioligand) (CCR1) [fold] | Ki (CCR1; [2]) [µM] | Ki (human CCR2b; [3]) [µM] | solubility kinetic at 10 s [1] [µM] | Ki (CCR1; read-out: pKi, CCR1 (radioligand) (converted)) [µM] | Ki (human CCR2b; read-out: pKi, CCR2 (radioligand) (converted)) [µM] | Structure (SMILES)
1 | 33 | 0.117 | 3.82 | 442 ± 27 (≈ 185 µg/mL) | – | – | O=C(C1=C(O)C(=O)N(CCc2ccc(O)cc2)C1c1ccc(F)cc1)c1ccccc1 (racemic) [compound 23]
2 | – | 0.018 | 0.009 | – | 0.0158 | 0.00794 | CC(=O)C1=C(O)C(=O)N(c2ccc(Br)cc2F)C1C1CCCCC1 (centres unmarked) [compound 5, reference compound]
